Entries after “also recorded” stand apart in the source; their conditions may differ.
Tests used:
[1] = biological target: T1, kappa-type opioid receptor (Cavia porcellus, UniProt P41144); assay: inhibition of specific [^3 H] EKC binding to guinea pig cerebellum membrane
T1 construct: using guiniea pig cerebellum membrane; from tissue; host or cells: guinea pig cerebellum membranes
Experimental: (§1) The interaction of some of the novel compounds with mu, delta and kappa - type opioid receptors present in brain membranes was examined in vitro. […] DAGO (mu-type receptor), or [^3 H] DADLE (Delta-type receptor) using rat forebrain membranes and [^3 H] EKC (kappa-type receptor) using guiniea pig cerebellum membrane was determined. Computer assisted analysis (EBDA) was used to determine apparent Ki values for the various compounds.
(§2) The values represent the MEAN±S.E.M. of the Ki(nM) for each compound to inhibit specific binding of the indicated ligand. Each value represents the mean of three individual experiments performed on separate occasions.

[2] = biological target: T2, mu-type opioid receptor (Rattus norvegicus, UniProt P33535); assay: inhibition of specific [^3 H] DAGO binding to rat forebrain membranes; details: (Ki) nM, μ receptor (Rat Forebrain), Table 6; [^3 H] DAGO, mean of three experiments
T2 construct: using rat forebrain membranes; from tissue; host or cells: rat forebrain membranes
Experimental: (§3) The interaction of some of the novel compounds with mu and delta-type opioid receptors present in brain membranes was examined in vitro. […] DAGO (mu-type receptor) or [^3 H] DADLE (delta-type receptor) was determined using rat forebrain membranes. Computer assisted analysis (EBDA) was used to determine apparent Ki values for the various compounds.
(§4) Values represent the MEAN±S.E.M. of the Ki(nM) for each compound to inhibit specific binding of the indicated ligand to rat brain membranes. The values are from two-five separate experiments and were calculated according to the method of Cheng and Prusoff [Biochem. Pharmacol. 1973, 22, 3099-3108] together with the EBDA Program. Numbers in parentheses are the mean Hill coefficients for each compound to inhibit ligand binding.
as §4, with “two.div.seven” for “two-five”, “Prusoff” for “Prusoff [Biochem. Pharmacol. 1973, 22, 3099-3108]”, “program.” for “Program.”, “binding. N.D.=not determined” for “binding.”
as §1, §2

[3] = system: writhing response; assay: animal or person; type: in vivo, mouse; details: for ED50: Mus musculus, Table 7, read-out: ED50, Acetic Acid Induced Writhing in the Mouse
[4] = biological target: delta-type opioid receptor (Rattus norvegicus, UniProt P33533); assay: inhibition of specific [^3 H] DADLE binding to rat forebrain membranes; details: read-out: (Ki) nM, δ receptor (Rat Forebrain); Table 6; [^3 H] DADLE, mean of three experiments
Experimental: as §3, §4
as §4, with “two.div.seven” for “two-five”, “Prusoff” for “Prusoff [Biochem. Pharmacol. 1973, 22, 3099-3108]”, “program.” for “Program.”, “binding. N.D.=not determined” for “binding.”
as §1, §2

[5] = system: tail flick response; assay: radiant heat tail flick analgesia in rats; type: in vivo, rat
Experimental: The analgesic properties of the compounds prepared in accordance with Examples III and IV were evaluated in rats using the radiant heat and tail flick paradigm. […] Flick latencies in FIGS. 11-13 were determined at 30 minute intervals through 3.5 h and the data was expressed as a percentage of the maximum possible effect (% MPE). A 15 sec. cut-off latency was used to minimize tissue damage. The values shown are the mean values for 6 rats.
A 15 sec. cut-off latency was used to prevent tissue damage.
The analgesic properties of compounds XXII and XXIII were evaluated in rats using the writhing assay and tail flick paradigm. […] The writhing assay which uses a chemical stimulus to produce pain, is believed to be more sensitive to kappa agonist activity than other measures of analgesia which uses a heat stimulus (Dykstra, L.A. Behavioral Pharmacology: The Current Status, N.Y.: Allan R. Liss. Inc. 1985).

[6] = system: oxymorphonazine (OMZ)-induced analgesia; assay: antagonism of oxymorphonazine (OMZ)-induced analgesia (tail flick) in rats; type: in vivo, rat; details: for ED50 / ED100: Rattus norvegicus, sc, Table 8; for ED50 / ED100 / Percent Antagonism at 1 Hr / Percent Antagonism at 1.5 Hr / Percent Antagonism at 2 Hr / Percent Antagonism at 3 Hr / Percent Antagonism at 4 Hr / Percent Antagonism at 6 Hr / Percent Antagonism at 8 Hr: S.C.; for ED50: read-out: ED 50, oxymorphonazine antagonism; for ED100: read-out: ED 100, oxymorphonazine antagonism; for Percent Antagonism at 1 Hr / Percent Antagonism at 1.5 Hr / Percent Antagonism at 2 Hr / Percent Antagonism at 3 Hr / Percent Antagonism at 4 Hr / Percent Antagonism at 6 Hr / Percent Antagonism at 8 Hr: dose tested (mg/kg): Naltrexone 0.5, Nalmefene 1.0, XI 10.0, XII 2.5, XIII 0.5, XIV 5.0
Experimental: The compound of Example XII was evaluated for its potency and duration in the antagonism of oxymorphonazine (OMZ)-induced analgesia. […] Data represent the mean SEM of 4-5 animals per group.
(Cowan A. Trendsin Pharmacology Science, 7:69-72, 1986) With this test the intracerebroventricular administration of bombesin produces a characteristic scratching response.

[7] = food intake in 24 hr food-deprived rats; type: in vivo, rat; details: for Food Intake in Grams: Table 3, 24 hr; for Cumulative Food Intake in Grams: Table 4
Experimental: (§5) Rats were given water and powdered food ad lib for 8 days until food intake had stabilized, and body weight and food and water intakes were recorded at the same time every day. Animals were assigned to treatment groups matched on the basis of their 24 hr food consumption on the last baseline day, and rats were food deprived for 24 hr immediately before injection of the test compound. […] The compound of Example XII was injected S.C. at doses of 1.15, 2.31, 11.55 and 23.09 μmol/kg, in a volume of 4 ml/kg of 0.3% acetic acid. Controls were injected with the vehicle solutions in the appropriate volumes. Food and water intakes were measured at 1, 3 and 24 hr after treatment. Data for each measure and time point were analyzed by one-way analysis of variance (ANOVA), and post-hoc comparisons were performed using Dunnett's test in order to compare the control mean to each of the treatment means.
(§6) Rats were given water and powdered food for 8 days, and following this,
(§7) Testing was performed as described above, and baseline measurements were recorded for 7 days. […] The compound of Example XII was injected at doses of 11.55, 23.09, 46.19 and 92.38 μmol/kg by suspension in a solution of 1:1 DMSO:water in a volume of 3 ml/kg. Food and water intakes were recorded at 1, 2, 4 and 6 h following treatment.
See Table 3 for experimental details, except that baseline measures were […]

[8] = water intake in 24 hr food-deprived rats; type: in vivo, rat; details: for effect on water intake: S.C.; for Water Intake: Table 3, 24 hr; for Cumulative Water Intake: Table 5
Experimental: as §5, §6, §7
See Table 3 for experimental details, except that baseline measurements

T1 sequence (P41144 whole entry): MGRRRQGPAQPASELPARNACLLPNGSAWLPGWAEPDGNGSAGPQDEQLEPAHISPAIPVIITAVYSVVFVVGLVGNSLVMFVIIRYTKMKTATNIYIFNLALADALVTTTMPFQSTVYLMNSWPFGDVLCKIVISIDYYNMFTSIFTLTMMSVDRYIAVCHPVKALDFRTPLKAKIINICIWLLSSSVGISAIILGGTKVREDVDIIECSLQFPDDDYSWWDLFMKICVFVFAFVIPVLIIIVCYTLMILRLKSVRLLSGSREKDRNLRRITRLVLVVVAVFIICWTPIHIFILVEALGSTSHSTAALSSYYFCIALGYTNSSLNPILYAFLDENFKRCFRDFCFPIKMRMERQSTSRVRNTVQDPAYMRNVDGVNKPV
T2 sequence (P33535 whole entry): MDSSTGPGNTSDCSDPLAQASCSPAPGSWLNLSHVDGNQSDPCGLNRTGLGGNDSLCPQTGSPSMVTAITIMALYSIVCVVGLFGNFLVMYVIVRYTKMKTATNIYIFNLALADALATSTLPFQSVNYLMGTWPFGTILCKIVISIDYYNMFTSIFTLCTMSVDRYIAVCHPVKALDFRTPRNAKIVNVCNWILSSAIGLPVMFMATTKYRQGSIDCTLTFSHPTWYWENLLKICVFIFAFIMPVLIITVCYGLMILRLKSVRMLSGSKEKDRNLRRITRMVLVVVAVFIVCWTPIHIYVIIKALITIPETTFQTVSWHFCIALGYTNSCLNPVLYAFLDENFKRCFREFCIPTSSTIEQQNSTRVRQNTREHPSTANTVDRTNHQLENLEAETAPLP
Chain of delta-type opioid receptor (P33533 whole entry): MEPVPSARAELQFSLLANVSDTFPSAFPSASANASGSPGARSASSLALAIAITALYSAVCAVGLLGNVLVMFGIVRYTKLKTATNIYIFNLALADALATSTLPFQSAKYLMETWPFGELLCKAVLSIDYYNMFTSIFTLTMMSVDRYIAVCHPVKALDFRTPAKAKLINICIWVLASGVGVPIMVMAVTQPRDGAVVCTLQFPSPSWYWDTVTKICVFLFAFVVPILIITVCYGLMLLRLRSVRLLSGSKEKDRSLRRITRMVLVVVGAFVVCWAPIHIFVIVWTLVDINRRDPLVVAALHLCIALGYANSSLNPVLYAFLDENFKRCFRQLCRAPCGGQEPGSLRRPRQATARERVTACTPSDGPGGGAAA

Oc1ccc2c3c1O[C@H]1C(=NOCCc4ccccc4)CC[C@@]4(O)[C@@H](C2)N(CC2CC2)CC[C@]314 [Example XXII, 6-[2-phenethyl]oximino-17-cyclopropylmethyl-4,5 α-epoxy-3,14-dihydroxymorphinan]
Ki [1]: 0.28 nM | fold more potent to inhibit specific [3H]EKC ([1]; than other compounds or naltrexone): 3 fold | Ki [2]: 0.88 nM | ED50 [3]: 0.01 mg/kg | potency versus morphine to antagonize writhing response ([3]; mouse, in vivo, ip): more potent than morphine to antagonize the writhing response | kappa selectivity and agonist activity ([3]; writhing and tail flick): selective to kappa receptors and possess kappa agonist activity | Ki [4]: 0.6 nM | ED50 ([5]; Rattus norvegicus, Table 7, read-out: ED50, Antagonism of the Tail-Flick Response in the Rat): 4.02 mg/kg | antagonism of tail-flick response to heat ([5]; rat): effectively antagonized the tail-flick response to a heat stimulus in the rat

O=C1CC[C@@]2(O)[C@H]3Cc4ccc(O)c5c4[C@@]2(CCN3CC2CC2)[C@H]1O5 [Naltrexone, naltrexone]
time course of antagonism of OMZ-induced analgesia, PO ([6]; PO, naltrexone 26.53 μmol/kg): a trend for progressive loss of the antagonistic effect over 0.5-4.0 hours, although the reversal was not complete by eight hours | ED50 [6]: 0.07 mg/kg | ED100 [6]: 0.62 mg/kg | Percent Antagonism at 1 Hr [6]: 98% | Percent Antagonism at 1.5 Hr [6]: 76% | Percent Antagonism at 2 Hr [6]: 79% | Percent Antagonism at 3 Hr [6]: 47% | Percent Antagonism at 4 Hr [6]: 30% | Percent Antagonism at 6 Hr [6]: 4% | Percent Antagonism at 8 Hr [6]: 4% | duration of antagonism of OMZ-induced analgesia, SC ([6]; SC, naltrexone 1.33 μmol/kg, OMZ 19 μmol/kg SC): up to 1 hr | ED50 [3]: > 30 mg/kg | effect on feeding ([7]; S.C., 1, 3 and 24 hr, lower dose experiment (FIGS. 22, 23)): 14.66 and 29.33 μmol/kg doses of naltrexone inhibited feeding at 3 hr following treatment | effect on feeding ([7]; S.C., higher dose time course experiment, 0-6 hr): at all doses decreased feeling up to 4 hr after administration, and the two lower doses also decreased feeding at 6 hr post treatment | Food Intake in Grams ([7]; S.C. 1.47 μmol/kg): 33.0 ± 0.7 Grams | Food Intake in Grams ([7]; S.C. 2.93 μmol/kg): 33.2 ± 3.0 Grams | Food Intake in Grams ([7]; S.C. 14.66 μmol/kg): 37.6 ± 4.2 Grams | Food Intake in Grams ([7]; S.C. 29.33 μmol/kg): 40.7 ± 8.2 Grams | Cumulative Food Intake in Grams ([7]; S.C. 14.66 μmol/kg, 0-1 Hr): 3.6 ± 0.5 Grams | Cumulative Food Intake in Grams ([7]; S.C. 14.66 μmol/kg, 0-2 Hr): 3.6 ± 0.5 Grams | Cumulative Food Intake in Grams ([7]; S.C. 14.66 μmol/kg, 0-4 Hr): 4.0 ± 0.0 Grams | Cumulative Food Intake in Grams ([7]; S.C. 14.66 μmol/kg, 0-6 Hr): 5.2 ± 0.6 Grams | Cumulative Food Intake in Grams ([7]; S.C. 29.33 μmol/kg, 0-1 Hr): 3.2 ± 0.6 Grams | Cumulative Food Intake in Grams ([7]; S.C. 29.33 μmol/kg, 0-2 Hr): 3.2 ± 0.6 Grams | Cumulative Food Intake in Grams ([7]; S.C. 29.33 μmol/kg, 0-4 Hr): 4.4 ± 0.5 Grams | Cumulative Food Intake in Grams ([7]; S.C. 29.33 μmol/kg, 0-6 Hr): 5.2 ± 0.9 Grams | Cumulative Food Intake in Grams ([7]; S.C. 58.65 μmol/kg, 0-1 Hr): 2.8 ± 1.1 Grams | Cumulative Food Intake in Grams ([7]; S.C. 58.65 μmol/kg, 0-2 Hr): 2.8 ± 1.1 Grams | Cumulative Food Intake in Grams ([7]; S.C. 58.65 μmol/kg, 0-4 Hr): 3.2 ± 0.9 Grams | Cumulative Food Intake in Grams ([7]; S.C. 58.65 μmol/kg, 0-6 Hr): 6.4 ± 0.5 Grams | Cumulative Food Intake in Grams ([7]; S.C. 117.30 μmol/kg, 0-1 Hr): 3.6 ± 0.8 Grams | Cumulative Food Intake in Grams ([7]; S.C. 117.30 μmol/kg, 0-2 Hr): 3.6 ± 0.8 Grams | Cumulative Food Intake in Grams ([7]; S.C. 117.30 μmol/kg, 0-4 Hr): 4.8 ± 0.9 Grams | Cumulative Food Intake in Grams ([7]; S.C. 117.30 μmol/kg, 0-6 Hr): 7.6 ± 1.3 Grams | food intake in 4-6 hr interval ([7]; food intake/2 hr interval, FIGS. 26 and 27): rats treated with the two highest doses of naltrexone are beginning to resume feeding; also recorded: an increase in food consumption at some doses compared to controls | effect on water intake ([8]; 1 and 3 hr, lower dose experiment (FIGS. 24, 25)): inhibited drinking at all doses tested at the 1 and 3 hr time points | effect on water intake ([8]; 1 and 3 hr, lower dose experiment (FIGS. 24, 25), listed as naltrexone): effectively inhibited drinking at all doses tested during the first three hours after administration | effect on water intake ([8]; higher dose time course experiment, 0-6 hr): significant effects at 0-1 hr, 0-2 hr and 0-4 hr | Water Intake ([8]; S.C. 1.47 μmol/kg): 69.0 ± 3.5 mL | Water Intake ([8]; S.C. 2.93 μmol/kg): 62.4 ± 3.8 mL | Water Intake ([8]; S.C. 14.66 μmol/kg): 53.4 ± 5.5 mL | Water Intake ([8]; S.C. 29.33 μmol/kg): 66.0 ± 2.8 mL | Cumulative Water Intake ([8]; S.C. 14.66 μmol/kg, 0-1 Hr): 5.2 ± 1.1 mL | Cumulative Water Intake ([8]; S.C. 14.66 μmol/kg, 0-2 Hr): 9.2 ± 1.1 mL | Cumulative Water Intake ([8]; S.C. 14.66 μmol/kg, 0-4 Hr): 15.2 ± 2.0 mL | Cumulative Water Intake ([8]; S.C. 14.66 μmol/kg, 0-6 Hr): 22.8 ± 2.1 mL | Cumulative Water Intake ([8]; S.C. 29.33 μmol/kg, 0-1 Hr): 5.2 ± 0.6 mL | Cumulative Water Intake ([8]; S.C. 29.33 μmol/kg, 0-2 Hr): 8.4 ± 0.5 mL | Cumulative Water Intake ([8]; S.C. 29.33 μmol/kg, 0-4 Hr): 15.2 ± 1.1 mL | Cumulative Water Intake ([8]; S.C. 29.33 μmol/kg, 0-6 Hr): 21.6 ± 3.1 mL | Cumulative Water Intake ([8]; S.C. 58.65 μmol/kg, 0-1 Hr): 3.6 ± 0.8 mL | Cumulative Water Intake ([8]; S.C. 58.65 μmol/kg, 0-2 Hr): 6.8 ± 0.6 mL | Cumulative Water Intake ([8]; S.C. 58.65 μmol/kg, 0-4 Hr): 13.2 ± 1.3 mL | Cumulative Water Intake ([8]; S.C. 58.65 μmol/kg, 0-6 Hr): 22.4 ± 2.6 mL | Cumulative Water Intake ([8]; S.C. 117.30 μmol/kg, 0-1 Hr): 3.6 ± 0.8 mL | Cumulative Water Intake ([8]; S.C. 117.30 μmol/kg, 0-2 Hr): 9.2 ± 0.9 mL | Cumulative Water Intake ([8]; S.C. 117.30 μmol/kg, 0-4 Hr): 16.0 ± 1.6 mL | Cumulative Water Intake ([8]; S.C. 117.30 μmol/kg, 0-6 Hr): 26.8 ± 3.4 mL

C=C1CC[C@@]2(O)[C@H]3Cc4ccc(O)c5c4[C@@]2(CCN3CC2CC2)[C@H]1O5 [Nalmefene, reference compound]
ED50 [6]: 0.12 mg/kg | ED100 [6]: 1.35 mg/kg | Percent Antagonism at 1 Hr [6]: 85% | Percent Antagonism at 1.5 Hr [6]: 92% | Percent Antagonism at 2 Hr [6]: 83% | Percent Antagonism at 3 Hr [6]: 73% | Percent Antagonism at 4 Hr [6]: 46% | Percent Antagonism at 6 Hr [6]: 0% | Percent Antagonism at 8 Hr [6]: 37% | Ki [1]: 0.89 nM | Ki [2]: 0.64 nM | ED50 [3]: > 30 mg/kg | Ki [4]: 0.87 nM

From patent US4889860A (Nova Pharmaceutical Corporation, priority 1987, dated 1989)
